The values that follow are results of earlier work, collected in patent US20200038305A1, “Sunscreen or Sunblock Composition” (Divios LLC, priority 2018, published 2020).

Take `C=C(C)[C@@H]1CCC(C)=C[C@H]1c1c(O)cc(CCCCC)cc1O` [CBD, cannabidiol]: the Aqueous solubility is 10 µg/mL.
